From patent publication US20260070929A1, “METHODS AND COMPOSITIONS FOR MODULATING KRAS(G12D)” (Ranok Therapeutics (Hangzhou) Co. LTD., priority 2022, published 2026) come the findings set out here.

For one experiment, the target named is T1, KRAS(G12D)/SOS1 (Homo sapiens, UniProt P01116, G12D).
T1 construct: purchased Cisbio 63ADK000CB17PEH
Nature of the experiment: KRAS(G12D)/SOS1 homogeneous time-resolved fluorescence (HTRF) assay. As to conditions: absence of GTP; 4° C., 3 hr. It counts as binding. In short, it runs like this: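 Disruption of the KRAS(G12D)/SOS1 pairing, in the absence of GTP, was read by time-resolved FRET after a 3 hr sealed incubation at 4 °C. Test compounds spanned 20 µM down to 1.02 nM in 3-fold steps. IC50 values correspond to half-maximal inhibition.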
On the technique in general: Time-resolved FRET reads energy transfer from a long-lived donor to a nearby acceptor.

In experiment [1] the test system is AGS gastric carcinoma cells [heterozygous G12D]. Put plainly: Cancer cell line proliferation (CellTiter-Glo), AGS. It counts as cell-based. As to conditions: Homo sapiens, 72 hr treatment, read-out: AGS CTG (EC50). In a few lines:
(§1)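 EC50 values come from CellTiter-Glo viability measured after 72 hr compound treatment at 37° C./5% CO2 with 0.5% final DMSO. Plating was at 4,000 cells/well with 72 hr growth before dosing, and compounds were serially diluted 3-fold from 20 μM down to 1.02 nM.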
Background: ATP-based viability assays read luminescence as a measure of living cells.

Experiment [2] deals with SW1990 pancreatic adenocarcinoma cells [homozygous G12D]. Put plainly: Cancer cell line proliferation (CellTiter-Glo), SW1990. The class given is cell-based. As to conditions: Homo sapiens, 72 hr treatment, read-out: SW1990 CTG (EC50). Here is the method: The following cancer cell lines were employed: AGS gastric carcinoma [heterozygous G12D](ATCC, CRL-1739); A-427 lung carcinoma [heterozygous G12D](ATCC, HTB-53); ASPC1 pancreatic adenocarcinoma [homozygous G12D](ATCC, CRL-1682) and SW1990 pancreatic adenocarcinoma [homozygous G12D](ATCC CRL-2172). Cell lines were cultured essentially according to ATCC recommendations.
AGS, A-427, ASPC1, SW1990, and GP2D cells were plated in 96-well tissue culture plates at 4,000 cells/well and incubated at 37° C./5% CO2 for 72 hr in 100 μl of media. 3-fold serial dilutions of each test compound were prepared ranging from 20 μM to 1.02 nM. Each cell line was then treated with test compounds at various concentrations with a final concentration of 0.5% DMSO/well, and then incubated at 37° C./5% CO2 for 72 hr. 100 µl of CellTiter-Glo® Reagent (Promega Corporation, Madison, WI) was added to each well and processed according manufacturer's protocol. Results were analyzed and EC50 values were calculated in GraphPad 7 software.

In experiment [3] the test system is A-427 lung carcinoma cells [heterozygous G12D]. Put plainly: Cancer cell line proliferation (CellTiter-Glo), A-427. The class given is cell-based. As to conditions: Homo sapiens, A-427 cells, 72 hr treatment, read-out: A427 CTG (EC50). In short, it runs like this:
as §1

Experiment [4] has as its system ASPC1 pancreatic adenocarcinoma cells [homozygous G12D]. Nature of the experiment: Cancer cell line proliferation (CellTiter-Glo), ASPC1. It counts as cell-based. As to conditions: Homo sapiens, ASPC1, 72 h, 72 hr treatment, read-out: ASPC-1 CTG (EC50). In a few lines: as §1

T1 sequence (P01116 1-188 isoform P01116-2 G12D): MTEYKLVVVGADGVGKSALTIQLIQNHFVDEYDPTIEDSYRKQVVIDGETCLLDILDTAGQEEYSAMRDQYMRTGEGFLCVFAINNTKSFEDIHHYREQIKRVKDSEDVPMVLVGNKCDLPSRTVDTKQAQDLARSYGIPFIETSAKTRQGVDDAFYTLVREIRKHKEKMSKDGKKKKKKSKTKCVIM

`C#Cc1c(F)ccc2cc(O)cc(-c3nc(OC)c4c(N5CC6CCC(C5)N6)nc(OCC5(CN6CCN(C7CCN(Cc8ccc(-n9c(C(=O)NC(C)C(F)(F)F)nnc9-c9cc(C(C)C)c(O)cc9O)cc8)CC7)CC6)CC5)nc4c3F)c12` (stereo not drawn) [Compound 178]: the IC50 at KRAS(G12D)/SOS1 was less than 100 nM. The EC50 in experiment [1] and in experiment [2] was less than 100 nM throughout.

In the case of `C#Cc1c(F)ccc2cc(O)cc(-c3ncc4c(N5CC6CCC(C5)N6)nc(OCC5(CN6CCC(C7CCN(Cc8ccc9c(c8)CN(C(=O)c8cc(C(C)C)c(OC)cc8OC)C9)CC7)CC6)CC5)nc4c3F)c12` [Compound 199], the EC50 in experiment [1] and in experiment [2] was 100 to 1000 nM each time.

In the case of `C#Cc1c(F)ccc2cc(O)cc(-c3ncc4c(N5CC6CCC(C5)N6)nc(OCC5(CN6CCC(N7CCN(Cc8ccc(-n9c(C(=O)NC(C)C(F)(F)F)nnc9-c9cc(C(C)C)c(O)cc9O)cc8)CC7)CC6)CC5)nc4c3F)c12` (stereo not drawn) [Compound 181], the IC50 at KRAS(G12D)/SOS1 was less than 100 nM. For the same compound, the 50% effective concentration (EC50) in experiment [1] and in experiment [2] was less than 100 nM in each case.

As for `C#Cc1c(F)ccc2cc(O)cc(-c3ncc4c(N5CC6CCC(C5)N6)nc(OCC5(CN6CC(N7CCN(Cc8ccc(-n9c(C(=O)NC(C)C(F)(F)F)nnc9-c9cc(C(C)C)c(O)cc9O)cc8)CC7)C6)CC5)nc4c3F)c12` (stereo not drawn) [Compound 203], in experiment [2], the EC50 was less than 100 nM.

For the compound `C#Cc1cccc2cc(O)cc(-c3ncc4c(N5CC6CCC(C5)N6)nc(OCC5(CN6CCN(CC7CCN(Cc8ccc(-n9c(C(=O)NCC)nnc9-c9cc(C(C)C)c(OC)cc9OC)cc8)CC7)CC6)CC5)nc4c3F)c12` [Compound 195], the EC50 in experiment [1] and in experiment [2] was 100 to 1000 nM in each case.

As for `C#Cc1c(F)ccc2cc(O)cc(-c3ncc4c(N5CC6CCC(C5)N6)nc(OCC5CN(C6CN(Cc7ccc8c(c7)CN(C(=O)c7cc(C(C)C)c(O)cc7O)C8)C6)C5)nc4c3F)c12` [Compound 193], on KRAS(G12D)/SOS1, the IC50 is less than 100 nM. Further, the EC50 in experiment [1] and in experiment [2] was 100 to 1000 nM each time.

For the compound `C#Cc1cccc2cc(O)cc(-c3ncc4c(N5CC6CNC(C6)C5)nc(OCC5(CN6CCN(CC7CCN(Cc8ccc(-n9c(C(=O)NCC)nnc9-c9cc(C(C)C)c(O)cc9O)cc8)CC7)CC6)CC5)nc4c3F)c12` (stereo not drawn) [Compound 197], the figures for the EC50 in experiment [1] and in experiment [2] were less than 100 nM and 100 to 1000 nM, respectively.

For `C#Cc1c(F)ccc2cc(O)cc(-c3ncc4c(N5CC6CCC(C5)N6)nc(OC[C@H]5CCCN5Cc5ccc6c(c5)CN(C(=O)c5cc(C(C)C)c(O)cc5O)C6)nc4c3F)c12` [Compound 204], the EC50 in experiment [1] is 100 to 1000 nM; in experiment [2], greater than 1000 nM.

Turning to `C#Cc1c(F)ccc2cc(O)cc(-c3ncc4c(N5CC6CCC(C5)N6)nc(OCC5(CN6CC(N7CCN(Cc8ccc9c(c8)CN(C(=O)c8cc(C(C)C)c(O)cc8O)C9)CC7)C6)CC5)nc4c3F)c12` [Compound 202], the EC50 in experiment [1] and in experiment [2] was 100 to 1000 nM each time.

As to `C#Cc1c(F)ccc2cc(O)cc(-c3ncc4c(N5CC6CCC(C5)N6)nc(OCC5(CN6CCN(C7CCN(Cc8ccc(-n9c(C(=O)NC(C)C(F)(F)F)nnc9-c9cc(C(C)C)c(OC)cc9OC)cc8)CC7)CC6)CC5)nc4c3F)c12` (stereo not drawn) [Compound 200], the EC50 is 100 to 1000 nM in experiment [1] and greater than 1000 nM in experiment [2].

As for `CNC(=O)c1nnc(-c2cc(C(C)C)c(O)cc2O)n1-c1ccc(CN2CCN(C(=O)C3CCN([C@H]4C[C@@H](COc5nc(N6CC7CCC(C6)N7)c6cnc(-c7cccc8cccc(Cl)c78)c(F)c6n5)N(C)C4)CC3)CC2)cc1` [Compound 7], the IC50 at KRAS(G12D)/SOS1 lay within 100 to 1000 nM. Further, the EC50 in experiment [1] was less than 100 nM; in experiment [3], 100 to 1000 nM; in experiment [4], 100 to 1000 nM.

In turn, `CNC(=O)c1nnc(-c2cc(C)c(O)cc2O)n1-c1ccc(CN2CCN(C(=O)C3CCN([C@H]4C[C@@H](COc5nc(C6CC7CCC(C6)N7)c6cnc(-c7cccc8cccc(Cl)c78)c(F)c6n5)N(C)C4)CC3)CC2)cc1` (stereo partly drawn) [Compound 8] yielded an IC50 against KRAS(G12D)/SOS1 of less than 100 nM. The EC50 in experiment [1], in experiment [3] and in experiment [4] was greater than 1000 nM throughout.

As a reminder, the IC50 is the concentration needed to halve the response being measured. Low values mean higher potency, high ones lower potency. A word on the EC50: it is the concentration that produces a half-maximal response.
